Data from patent US7670800B2, “Process for the purification of riboflavin” (DSM IP Assets B.V., priority 2003, dated 2010).

Legend:
[1] = Soluble fraction of riboflavin in induced and uninduced cultures; format: physicochemical; details: fermentation culture induced with seed crystals
Protocol: 500 mg of crystals of riboflavin monohydrate were sterilized at 140° C. for 50 min in an oven, suspended in 5 ml ethanol for 10-200 min, preferably 20-40 min and prior induction 10 ml sterile H2O were added for better handling of the liquid. The suspension was added to the bioreactor after 6 h by a sterile bottle with needle. Crystals of riboflavin dihydrate were formed and in the culture remained monoseptic. From these experiments, it can be concluded that it is possible to direct the crystal modification to riboflavin dihydrate.
In case of the induced cultures this phenomenon is not observed. The solubility of riboflavin (approximately 0.4 gl^−1) is not exceeded. It is controlled by x-ray diffraction whether the crystalline form of the crystals changes during the sterilization procedure.

[2] = Supersaturation / spontaneous crystallisation in fermentation solution (heat flow calorimeter, turbidity sensor; MethB); format: physicochemical
Protocol: Within the temperature range of 44° C. to 52° C. the solubility of riboflavin dihydrate and within the temperature range of 44° C. to 59° C. the spontaneous crystallization of riboflavin were investigated. […] In another experiment riboflavin was dissolved at a concentration of 0.7 g l^−1 and at a temperature of 69° C.
The experiments were conducted in a heat flow calorimeter. The process of […] by heating and crystallisation by cooling was monitored by a turbidity sensor. 36 mg of crystals of riboflavin anhydrate I or 60 mg of the crystalline form of riboflavin monohydrate or 120 mg of crystals of riboflavin dihydrate, respectively, were suspended in the fermentation solution and heated to 80° C. at a rate of 0.1° C. per minute. The temperature was held during 60 min. Then the system was cooled again to 20° C. at a rate of 0.1° C./min.
Therefore, another method (MethB) was applied to determine the supersaturation at 39° C.: 420 mg of crystals of riboflavin tetrahydrate were suspended and fully dissolved by heating to 69° C. The concentration of riboflavin was 0.6 mg ml^−1. After cooling again to 39° C., the temperature was kept constant.

[3] = not given; remark: listed apart in the source
[4] = relative humidity of 95%, samples prepared by method of U.S. Pat. No. 2,603,633
Description: A process for the preparation of riboflavin tetrahydrate is described in U.S. Pat. No. 2,603,633. The process basically uses a solvent to rapidly precipitate the riboflavin in order to obtain the desired tetrahydrate “type C” (modification).

For `Cc1cc2nc3c(=O)[nH]c(=O)nc-3n(C[C@H](O)[C@H](O)[C@H](O)CO)c2cc1C` [riboflavin], the solubility of riboflavin [1] was “approximately 0.4 gl^−1” and the supersaturation line ([2]; 39° C., MethB, concluded from the experiments) was “below 0.6 mg ml^−1”.

With `Cc1cc2nc3c(=O)[nH]c(=O)nc-3n(C[C@H](O)[C@H](O)[C@H](O)CO)c2cc1C` [riboflavin anhydrate II] the “range of relative humidity at which the crystalline form appeared” value (sample modification B/C, DVS with parallel X-ray diffraction, ambient temperature) was 0% RH.

For `Cc1cc2nc3c(=O)[nH]c(=O)nc-3n(C[C@H](O)[C@H](O)[C@H](O)CO)c2cc1C` [riboflavin anhydrate I, reference compound], the “partial transformation into riboflavin dihydrate” value ([3]; stirred slurry only containing riboflavin anhydrate I, 4° C., in 56 days) was 80% and the “position of the supersaturation line” value ([2]; 39° C., estimated) was “above 0.6 g l^−1”.

In the case of `Cc1cc2nc3c(=O)[nH]c(=O)nc-3n(C[C@H](O)[C@H](O)[C@H](O)CO)c2cc1C.O.O.O.O` [riboflavin tetrahydrate], the “time until crystallisation started” value ([2]; 0.6 mg ml^−1 riboflavin, dissolved at 69° C., cooled to and kept at 39° C.) is reported as 3 h, the “temperature of spontaneous crystallisation” value ([2]; 0.7 mg ml^−1, dissolved at 69° C., cooling) is reported as 46 °C and the “time to transform into riboflavin dihydrate” value [4] is reported as “about 100 min”.

In the case of `Cc1cc2nc3c(=O)[nH]c(=O)nc-3n(C[C@H](O)[C@H](O)[C@H](O)CO)c2cc1C` [riboflavin dihydrate], the “time for complete transformation into riboflavin anhydrate I” value ([3]; 80° C.) is reported as ≤ 20 s, the “partial transformation into riboflavin anhydrate I” value ([3]; stirred slurry of pure riboflavin dihydrate, 23° C., in 11 days, Raman spectroscopy) is reported as 80% and the “water contained in the dihydrate structure” value (relative humidity of 20%, decreasing RH) is reported as “about 1.3 mol water per mol riboflavin”. For the same compound, the water uptake (relative humidity of about 92%, increasing RH, ambient temperature, sample B/C) was 9.57 wt.-%.

With `Cc1cc2nc3c(=O)[nH]c(=O)nc-3n(C[C@H](O)[C@H](O)[C@H](O)CO)c2cc1C` [riboflavin anhydrate III] the “range of relative humidity in which the crystalline form was identified” value (second sample (type C), DVS) was 0% < RH % RH.
